This is an account of results in patent US8450313B2, “2,3-diaryl- or heteroaryl-substituted 1,1,1-trifluoro-2-hydroxypropyl compounds” (Hoffmann-La Roche Inc., priority 2009, dated 2013).

For the test, the target named is T1, full length human recombinant glucocorticoid receptor (Homo sapiens, UniProt P04150).
T1 construct: It contains some partially purified full length human recombinant glucocorticoid receptor; purchased Panvera/Invitrogen PV4302
T1 sequence (P04150 1-777): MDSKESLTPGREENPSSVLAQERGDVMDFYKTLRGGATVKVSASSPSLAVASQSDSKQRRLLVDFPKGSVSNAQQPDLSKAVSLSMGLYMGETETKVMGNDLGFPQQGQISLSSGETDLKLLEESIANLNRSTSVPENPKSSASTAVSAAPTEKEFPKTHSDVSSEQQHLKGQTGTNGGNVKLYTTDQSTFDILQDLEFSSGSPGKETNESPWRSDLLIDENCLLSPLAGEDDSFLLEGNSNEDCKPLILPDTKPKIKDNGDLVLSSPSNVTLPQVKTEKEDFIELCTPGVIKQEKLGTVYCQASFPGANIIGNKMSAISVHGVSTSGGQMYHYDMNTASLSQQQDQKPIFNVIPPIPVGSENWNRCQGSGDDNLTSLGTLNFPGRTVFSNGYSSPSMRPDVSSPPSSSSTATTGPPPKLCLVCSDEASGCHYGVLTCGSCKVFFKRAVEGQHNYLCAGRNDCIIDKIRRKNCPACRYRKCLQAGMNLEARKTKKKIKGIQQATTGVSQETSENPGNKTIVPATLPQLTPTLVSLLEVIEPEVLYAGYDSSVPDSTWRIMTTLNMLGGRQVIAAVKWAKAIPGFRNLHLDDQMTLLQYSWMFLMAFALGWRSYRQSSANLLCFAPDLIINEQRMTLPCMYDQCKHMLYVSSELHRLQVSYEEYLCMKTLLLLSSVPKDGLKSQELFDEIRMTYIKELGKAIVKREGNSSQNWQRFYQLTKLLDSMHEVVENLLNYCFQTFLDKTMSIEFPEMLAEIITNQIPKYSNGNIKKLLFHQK
Description: Glucocorticoid Receptor Binding Assay (Glucocorticoid Receptor Competitor Assay far red kit, fluorescence polarization). Conditions: competition with fluorescent GR ligand Fluormone GS Far Red, 3 hours at 22° C., pH 7.4; Ki calculated from IC50 by Cheng-Prusoff. In a few lines: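 Compounds in serial dilution (from intermediate 4.2% DMSO stock) displace Fluormone GS Far Red from full-length human recombinant GR with stabilizing peptide, pH 7.4, incubated 3 hours at 22° C dark. Polarized fluorescence (610–660 nm) gives IC50 via sigmoidal fit, converted to Ki by Cheng-Prusoff.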

For orientation: Ki means the dissociation constant of the complex between target and ligand, obtained from inhibition or displacement. `C[C@@H](c1ccc(-c2ccccc2C(=O)O)cc1Cl)[C@](O)(c1ccc2c(c1)N(C)C(=O)CO2)C(F)(F)F` (relative stereo) [Example 24, 3′-Chloro-4′-[3,3,3-trifluoro-2-hydroxy-1-methyl-2-(4-methyl-3-oxo-3,4-dihydro-2H-benzo[1,4]oxazin-6-yl)-propyl]-biphenyl-2-carboxylic acid]: the Ki is 19.6 nM.

Regarding `C[C@@H](c1ccc(Oc2ccc(C(=O)O)c(F)c2)cc1Cl)[C@](O)(c1ccc2c(c1)n(C)c(=O)n2C)C(F)(F)F` (stereo in doubt) [Example 88, 4-{3-Chloro-4-[2-(1,3-dimethyl-2-oxo-2,3-dihydro-1H-benzoimidazol-5-yl)-3,3,3-trifluoro-2-hydroxy-1-methyl-propyl]-phenoxy}-2-fluoro-benzoic acid], the Ki was 0.7 nM.

As for `C[C@H](c1ccc(Oc2ncc(C(=O)O)cn2)cc1Cl)[C@@](O)(c1ccc2oc(=O)n(C)c2c1)C(F)(F)F` (relative stereo) [Example 203, 2-{3-Chloro-4-[3,3,3-trifluoro-2-hydroxy-1-methyl-2-(3-methyl-2-oxo-2,3-dihydro-benzooxazol-5-yl)-propyl]-phenoxy}-pyrimidine-5-carboxylic acid], the Ki was 1.8 nM.

Consider `C[C@H](c1ccc(Oc2ccc(C(=O)O)cc2)cc1Cl)[C@@](O)(c1ccc2c(c1)n(C)c(=O)n2C)C(F)(F)F` (relative stereo) [Example 98, 4-{3-Chloro-4-[2-(1,3-dimethyl-2-oxo-2,3-dihydro-1H-benzoimidazol-5-yl)-3,3,3-trifluoro-2-hydroxy-1-methyl-propyl]-phenoxy}-benzoic acid], for which the Ki is 1.6 nM.

As for `C[C@H](c1ccc(-c2ccc(C(=O)O)c(F)c2)cc1C(F)(F)F)[C@@](O)(c1ccc2oc(=O)n(C)c2c1)C(F)(F)F` (stereo in doubt) [Example 200, 3-Fluoro-4′-[3,3,3-trifluoro-2-hydroxy-1-methyl-2-(3-methyl-2-oxo-2,3-dihydro-benzooxazol-5-yl)-propyl]-3′-trifluoromethyl-biphenyl-4-carboxylic acid], the Ki is 4.5 nM.

With `C[C@H](c1ccc(Oc2cc(C(=O)O)c(C(F)(F)F)cn2)cc1Cl)[C@@](O)(c1ccc2c(c1)n(C)c(=O)n2C)C(F)(F)F` (stereo in doubt) [Example 110, 2-{3-Chloro-4-[2-(1,3-dimethyl-2-oxo-2,3-dihydro-1H-benzoimidazol-5-yl)-3,3,3-trifluoro-2-hydroxy-1-methyl-propyl]-phenoxy}-5-trifluoromethyl-isonicotinic acid], the Ki is 2.1 nM.

For the compound `COC(=O)c1cnc(Oc2ccc([C@@H](C)[C@@](O)(c3ccc4oc(=O)n(C)c4c3)C(F)(F)F)c(Cl)c2)c(Cl)c1` (relative stereo) [Example 175, 5-Chloro-6-{3-chloro-4-[3,3,3-trifluoro-2-hydroxy-1-methyl-2-(3-methyl-2-oxo-2,3-dihydro-benzooxazol-5-yl)-propyl]-phenoxy}-nicotinic acid methyl ester], the Ki is 1.8 nM.

Consider `C[C@@H](c1cc(Oc2cccc(CC(=O)O)c2)ccc1Cl)[C@](O)(c1ccc2c(c1)N(C)C(=O)CO2)C(F)(F)F` (relative stereo) [Example 12, (3-{4-Chloro-3-[3,3,3-trifluoro-2-hydroxy-1-methyl-2-(4-methyl-3-oxo-3,4-dihydro-2H-benzo[1,4]oxazin-6-yl)-propyl]-phenoxy}-phenyl)-acetic acid], for which the Ki is 8 nM.

As to `C[C@@H](c1ccc(-c2ccc(C(=O)O)c(F)c2)cc1Cl)[C@](O)(c1cc(F)c2c(c1)N(C)C(=O)CO2)C(F)(F)F` (relative stereo) [Example 46, 3′-Chloro-3-fluoro-4′-[3,3,3-trifluoro-2-(8-fluoro-4-methyl-3-oxo-3,4-dihydro-2H-benzo[1,4]oxazin-6-yl)-2-hydroxy-1-methyl-propyl]-biphenyl-4-carboxylic acid], the Ki was 10.9 nM.

As for `C[C@@H](c1ccc(-c2ccc(C(=O)O)cc2F)cc1Cl)[C@](O)(c1ccc2c(c1)N(C)C(=O)CO2)C(F)(F)F` (stereo in doubt) [Example 34, 3′-Chloro-2-fluoro-4′-[3,3,3-trifluoro-2-hydroxy-1-methyl-2-(4-methyl-3-oxo-3,4-dihydro-2H-benzo[1,4]oxazin-6-yl)-propyl]-biphenyl-4-carboxylic acid], the Ki was 7.8 nM.

As for `CCN1C(=O)COc2ccc([C@](O)([C@H](C)c3ccc(-c4ccc(F)c(C(=O)O)c4)cc3Cl)C(F)(F)F)cc21` (relative stereo) [Example 67, 3′-Chloro-4′-[2-(4-ethyl-3-oxo-3,4-dihydro-2H-benzo[1,4]oxazin-6-yl)-3,3,3-trifluoro-2-hydroxy-1-methyl-propyl]-4-fluoro-biphenyl-3-carboxylic acid], the Ki was 40.2 nM.

On to `C[C@@H](c1ccc(-c2ccc(C(=O)O)c(F)c2)cc1Cl)[C@](O)(c1ccc2c(c1)N(C)S(=O)(=O)N2C)C(F)(F)F` (relative stereo) [Example 163, 3′-Chloro-4′-[2-(1,3-dimethyl-2,2-dioxo-2,3-dihydro-1H-2λ6-benzo[1,2,5]thiadiazol-5-yl)-3,3,3-trifluoro-2-hydroxy-1-methyl-propyl]-3-fluoro-biphenyl-4-carboxylic acid], for which the Ki is 35.1 nM.

As to `CCOC(=O)c1cc(-c2ccc([C@H](C)[C@](O)(c3ccc4oc(=O)n(C)c4c3)C(F)(F)F)c(Cl)c2)ccc1F` (relative stereo) [Example 121, 3′-Chloro-4-fluoro-4′-[3,3,3-trifluoro-2-hydroxy-1-methyl-2-(3-methyl-2-oxo-2,3-dihydro-benzooxazol-5-yl)-propyl]-biphenyl-3-carboxylic acid ethyl ester], the Ki was 1.6 nM.

Regarding `CCN1C(=O)COc2ccc([C@](O)([C@H](C)c3ccc(-c4ccc(C(=O)O)c(Cl)c4)cc3Cl)C(F)(F)F)cc21` (racemic) [Example 64, 3,3′-Dichloro-4′-[2-(4-ethyl-3-oxo-3,4-dihydro-2H-benzo[1,4]oxazin-6-yl)-3,3,3-trifluoro-2-hydroxy-1-methyl-propyl]-biphenyl-4-carboxylic acid], the Ki is 97.9 nM.

For `CC(c1ccc(-c2ccc(C(=O)O)c(F)c2)cc1Cl)C(O)(c1ccc2c(c1)n(C)c(=O)n2C)C(F)(F)F` (centres unmarked) [Example 73, 3′-Chloro-4′-[2-(1,3-dimethyl-2-oxo-2,3-dihydro-1H-benzoimidazol-5-yl)-3,3,3-trifluoro-2-hydroxy-1-methyl-propyl]-3-fluoro-biphenyl-4-carboxylic acid], the Ki is 7.3 nM.

For the compound `C[C@H](c1ccc(-c2ccc(C(=O)O)c(F)c2)cc1Cl)[C@@](O)(c1cccc2c1OCC(=O)N2C)C(F)(F)F` (stereo in doubt) [Example 54, 3′-Chloro-3-fluoro-4′-[3,3,3-trifluoro-2-hydroxy-1-methyl-2-(4-methyl-3-oxo-3,4-dihydro-2H-benzo[1,4]oxazin-8-yl)-propyl]-biphenyl-4-carboxylic acid], the Ki is 281 nM.

For `C[C@H](c1ccc(Br)cc1Cl)[C@@](O)(c1ccc2oc(=O)n(C)c2c1)C(F)(F)F` (relative stereo) [Example 116, 5-[2-(4-Bromo-2-chloro-phenyl)-1-hydroxy-1-trifluoromethyl-propyl]-3-methyl-3H-benzooxazol-2-one], the inhibition constant Ki was 1 nM.

Take `COC(=O)CC1CCN(C(=O)c2ccc(Cl)c([C@H](C)[C@](O)(c3ccc4c(c3)N(C)C(=O)CO4)C(F)(F)F)c2)CC1` (relative stereo) [Example 19, (1-{4-Chloro-3-[3,3,3-trifluoro-2-hydroxy-1-methyl-2-(4-methyl-3-oxo-3,4-dihydro-2H-benzo[1,4]oxazin-6-yl)-propyl]-benzoyl}-piperidin-4-yl)-acetic acid methyl ester]: the Ki is 214 nM.

`C[C@@H](c1ccc(Oc2cc(C(F)(F)F)c(C(=O)O)cn2)cc1Cl)[C@](O)(c1ccc2c(c1)n(C)c(=O)n2C)C(F)(F)F` (relative stereo) [Example 102, 6-{3-Chloro-4-[2-(1,3-dimethyl-2-oxo-2,3-dihydro-1H-benzoimidazol-5-yl)-3,3,3-trifluoro-2-hydroxy-1-methyl-propyl]-phenoxy}-4-trifluoromethyl-nicotinic acid]: the Ki is 0.5 nM.

Consider `COC(=O)c1ccc(-c2ccc([C@@H](C)[C@@](O)(c3ccc4oc(=O)n(C)c4c3)C(F)(F)F)c(Cl)c2)cn1` (relative stereo) [Example 187, 5-{3-Chloro-4-[3,3,3-trifluoro-2-hydroxy-1-methyl-2-(3-methyl-2-oxo-2,3-dihydro-benzooxazol-5-yl)-propyl]-phenyl}-pyridine-2-carboxylic acid methyl ester], for which the Ki was 2.1 nM.
